System: myosin heavy chain (MHC) protein in C2C12 myotubes
Assay: Muscle cell assay: oxidative modification of myosin heavy chain protein after electrical pulse stimulation (OXYBLOT)
Type: cell-based, Mouse
Procedure: Mouse C2C12 myoblasts were purchased from American Type Culture Collection (ATCC; Manassas, Va.) and grown to 90% confluence in high glucose Dubecco's Modified Eagle media (DMEM) with 10% fetal bovine serum (FBS). Myoblasts from the purchased lot were grown in T75 flasks and passaged >5 times prior to plating in collagen coated six-well plates for experimentation. To induce myotube differentiation FBS was replaced with 2% horse serum for 5 days. Myoblasts were grown and myotubes were maintained without antibiotics in a 37° C., 5% CO2 incubator. Western blot analysis for myosin heavy chain (MHC) protein indicated expression by day five with maintenance of steady state protein levels through day eight of differentiation. Electrical pulsing was applied to the myotubes using a C-Pace EP Cell Culture Stimulator (IonOptix; Milton, Mass.). Cells were stimulated to visibly and repetitively contract for 90 minutes at a pulse frequency of 0.5 Hz and a pulse duration of 24 ms. Immediately prior to stimulation, day old media was removed and replaced with 5 ml of fresh differentiation media. Myotubes were lysed and proteins were derivatized to 2,4-dinitrophenylhydrazone (DNP; OXYBLOT method). […] Protein bands were visualized and quantified with a Bio-Rad Chemidoc XRS system. […]

Cc1c(C)c2c(c(C)c1O)CCC(C)(C(=O)O)O2 (centres unmarked) [TROLOX, 6-hydroxy-2,5,7,8-tetramethylchroman-2-carboxylic acid]
Oxidative modification of MHC protein reduced (% of EPS alone) (1 mM TROLOX pre-treatment approx. 18 h prior and again immediately before EPS, 90 min EPS at 0.5 Hz, 24 ms, five independent experiments, FIG. 4): 42±15% | Oxidative modification of myosin heavy chain protein compared to electrical pulse stimulation alone (FIG. 4) (incubated with 1 mM TROLOX and subjected to electrical pulse stimulation): reduced oxidative modification

From patent publication US20110263697A1, “Methods of Reducing Oxidative Modification of a Muscle Cell Protein” (STOKELY-VAN CAMP, INC., priority 2010, published 2011)
